Assay results taken from patent publication US20110224232A1 (Board of Regents, The University of Texas System, priority 2008, published 2011).
Where “and” joins values, the source holds several entries; their conditions need not be identical. Identical values can stand only once.

Legend:
[1] = system: invasive pulmonary aspergillosis; conditions: high doses, 40 mg/kg per day; cited from earlier work
[2] = underivatized; cited from earlier work
[3] = system: Aspergillus fumigatus clinical isolate 293 (AF 293); assay: Survival of A. fumigatus-infected immunosuppressed mice (Kaplan-Meier); format: in vivo; conditions: A. fumigatus-infected female ICR mice, VOR inhalation BID 30-40 mg/kg, AmB intraperitoneal QD 1 mg/kg
Excerpt: Conidia were harvested from Aspergillus fumigatus clinical isolate 293 (AF 293) cultures grown on potato dextrose agar (Hardy Diagnostics, Santa Maria, Calif.) by washing and scraping agar surfaces with 0.1% Tween 80 in sterile physiological saline and filtering through sterile glass wool. Conidia were re-suspended to achieve a final inoculum of ˜1×10^9 conidia/mL, as confirmed by hemocytometer counts and serial plating.
Mice were rendered immunosuppressed by intraperitoneal cyclophosphamide (250 mg/kg) and subcutaneous cortisone acetate (250 mg/kg) two days prior to inoculation (Day −2). Both cyclophosphamide (200 mg/kg intraperitoneal) and cortisone acetate (250 mg/kg subcutaneously) were re-administered on Day +3 following inoculation. Mice also received prophylactic antibiotic therapy of ceftazidime 50 mg/kg administered sub-cutaneously on Day −2 through Day +7.
To simulate pulmonary pathogenesis, mice were placed inside an acrylic chamber, and A. fumigatus conidia were introduced by aerosolizing the conidial suspension with a small particle nebulizer (Hudson Micro Mist, Hudson RCI, Temecula, Calif.) driven by compressed air. A standard exposure time of 1 hour was used to allow for complete aerosolization of the conidial suspension. Starting inocula were assessed by colony forming unit (CFU) enumeration from mice one hour post-inoculation.
The inhaled control group received 20 minute nebulizations of 100 mg/mL CAPTISOL® solutions BID beginning on Day −2 and continuing through Day +7. The intraperitoneal AmB group received 1 mg/kg Amphotericin B deoxycholate (Apothecon, Princeton, N.J.) by intraperitoneal injection (IP) once daily (QD) on Day +1 and continuing through Day +7 (FIG. 2).
Statistical analyses were conducted as follows. Survival was plotted by Kaplan-Meier analysis, and differences in median survival and percent survival between prophylaxis groups were analyzed by the log-rank test and chi-square test, respectively, using Prism version 4 software (GraphPad, San Diego, Calif.). […] A p-value of ≦0.05 was considered statistically significant for all comparisons.

Aspergillus fumigatus [4] = assay: Pulmonary fungal burden by colony forming units in infected mice; format: in vivo
Protocol: (§1) Mice were monitored for an additional 5 days following discontinuation of treatment. Animals that appeared moribund prior to the end of the study were euthanized by halothane and death was recorded as occurring the next day. 12 mice were randomly selected from each group and euthanized on Day +8 for fungal burden analysis while any remaining mice were euthanized on Day +12. 2 additional mice were randomly selected from each group and euthanized on Day +8 and Day +12 for histological analysis
Lungs were homogenized in sterile saline (total volume 2 mL) supplemented with gentamicin and chloramphenicol using a tissue homogenizer (Polytron Dispensing and Mixing Technology PT 2100, Kinematica, Cincinnati, Ohio). Serial dilutions were prepared in sterile saline and plated in duplicate onto potato dextrose agar. Following 24 hours of incubation at 37° C., colonies were enumerated and colony forming units (CFU) per gram of lung tissue for each animal were calculated.
(§2) Statistical analyses were conducted as follows. Survival was plotted by Kaplan-Meier analysis, and differences in median survival and percent survival between prophylaxis groups were analyzed by the log-rank test and chi-square test, respectively, using Prism version 4 software (GraphPad, San Diego, Calif.). Differences in fungal burden endpoints (CFU/g and CE) were assessed for significance by analysis of variance with Tukey's post-test for multiple comparisons. A p-value of ≦0.05 was considered statistically significant for all comparisons.

Aspergillus fumigatus [5] = assay: Pulmonary fungal burden by real-time quantitative PCR (conidial equivalents) in infected mice; format: in vivo; conditions: Day + 8 per table footnote
Protocol: as §1
Pulmonary fungal burden was also quantified by real-time quantitative polymerase chain reaction (qPCR) using previously described methods. Briefly, DNA was extracted from […] of lung homogenate with the use of a commercially available kit (DNeasy Tissue Kit, Qiagen, Valencia, Calif.) according to the manufacturer's instructions. DNA samples were analyzed in duplicate with the use of the ABI PRISM 7300 sequence-detection system (Applied Biosystems, Foster City, Calif.) with primers and dual-labeled fluorescent hybridization probes specific for the A. fumigatus 1,3-β-glucan synthase (FKS) gene (GenBank accession number U79728). The threshold cycle (Ct) of each sample was interpolated from a six-point standard curve generated by spiking naive mouse lungs with known amounts of conidia (102 to 107). An internal standard was amplified in separate reactions to correct for differences in DNA recovery. The resulting data was expressed as conidial equivalents (CE).
as §2

A. fumigatus = assay: Lung histopathology, pulmonary lesion counts in A. fumigatus-infected mice; format: in vivo, Aspergillus fumigatus
Protocol: Histopathological changes in lung tissue were evaluated and compared for four mice in each of the inhaled voriconazole, inhaled control, and intraperitoneal AmB groups. The inhaled control was aerosolized CAPTISOL® at a concentration of 100 mg/mL over 20 minutes. On day 8 post inoculation, animals were euthanized using halothane and 10% volume/volume formaldehyde was instilled into the lungs via the trachea. Lungs were then harvested and placed into 10% volume/volume formaldehyde. Tissue was fixed in formaldehyde for an adequate period of time followed by processing and embedding into paraffin wax. Coronal sections of the entire lung were obtained at a thickness of 4-6 μm and mounted on slides. Sections were stained with hematoxylin and eosin and viewed by light microscopy with a Zeiss AxioVision Imager at 10× magnification. Two investigators were blinded and independently evaluated each lung section. The extent of lung damage caused by invasive hyphae was recorded and quantified by counting and normalizing the number of gross lesions.
Normalization of the histopathology results was achieved by using the number of lung pieces (sections) on the slide as a denominator. The total number of lesions on the slide were counted and then divided by the number of pieces of tissue on that slide. This was done because the number of pieces of tissue per slide (again, all from the same cut of lung from the same animal) ranged from 4 to 9. For example, the normalized number of lesions would be 0.4 if 2 lesions were observed on a slide with 5 lung pieces. Similarly, the normalized value would be 0.14 if 1 lesion was observed on a slide with 7 lung pieces.

[6] = normalized lesions, listed as AmB

For CC[C@@H]([C@H](C)O)n1ncn(-c2ccc(N3CCN(c4ccc(OC[C@@H]5CO[C@@](Cn6cncn6)(c6ccc(F)cc6F)C5)cc4)CC3)cc2)c1=O [posaconazole], the “fungal burden as measured by quantitative real-time PCR” value [1] is given as “significant reductions in fungal burden”.

For OC[C@H]1O[C@@H]2O[C@H]3[C@H](O)[C@@H](O)[C@@H](O[C@H]4[C@H](O)[C@@H](O)[C@@H](O[C@H]5[C@H](O)[C@@H](O)[C@@H](O[C@H]6[C@H](O)[C@@H](O)[C@@H](O[C@H]7[C@H](O)[C@@H](O)[C@@H](O[C@H]1[C@H](O)[C@H]2O)O[C@@H]7CO)O[C@@H]6CO)O[C@@H]5CO)O[C@@H]4CO)O[C@@H]3CO [α-CD], the “water solubility at saturation” value [2] is listed as “about 14.5 % w/w”.

For Amphotericin B deoxycholate, the “Percent Survival” value ([3]; to Day +12) was 23.1%, the “Median Survival” value [3] was 7 days and the “A - Day 8 Fungal Burden Determined by CFU, Mean” value (Aspergillus fumigatus [4]; Day +8) was 4.37 log10 CFU. For the same compound, the “A - Day 8 Fungal Burden Determined by CFU, Median” value (Aspergillus fumigatus [4]; Day +8) was 4.33 log10 CFU, the “A - Day 8 Fungal Burden Determined by CFU, Range” value (Aspergillus fumigatus [4]; Day +8) was “(3.59-5.07) log10 CFU” and the “B - Fungal Burden Determined by CFU for All Mice, Mean” value (Aspergillus fumigatus [4]; all samples, day 8 and day 12) was 4.22 log10 CFU. For the same compound, the “B - Fungal Burden Determined by CFU for All Mice, Median” value (Aspergillus fumigatus [4]; all samples, day 8 and day 12) was 4.33 log10 CFU, the “B - Fungal Burden Determined by CFU for All Mice, Range” value (Aspergillus fumigatus [4]; all samples, day 8 and day 12) was “(3.24-5.07) log10 CFU” and the “C - Conidial Equivalents Determined by qPCR, Mean” value (Aspergillus fumigatus [5]) was 4.89 log10 conidial equivalents. For the same compound, the “C - Conidial Equivalents Determined by qPCR, Median” value (Aspergillus fumigatus [5]) was 4.95 log10 conidial equivalents, the “C - Conidial Equivalents Determined by qPCR, Range” value (Aspergillus fumigatus [5]) was “(4.49-5.38) log10 conidial equivalents” and the “D - Conidial Equivalents per Gram of Lung Tissue Determined by Qpcr, Mean” value (Aspergillus fumigatus [5]; normalized for wet lung weight) was 5.50 log10 conidial equivalents per. The “D - Conidial Equivalents per Gram of Lung Tissue Determined by Qpcr, Median” value (Aspergillus fumigatus [5]; normalized for wet lung weight) was 5.57 log10 conidial equivalents per, the “D - Conidial Equivalents per Gram of Lung Tissue Determined by Qpcr, Range” value (Aspergillus fumigatus [5]; normalized for wet lung weight) was “(5.09-5.88) log10 conidial equivalents per” and the “lung histopathology findings (in words)” value (A. fumigatus; A. fumigatus-infected mice, aerosolized voriconazole, intraperitoneal amphotericin B) was “marked pulmonary disease, including necrosis and the presence of invasive hyphae, was observed”. For the same compound, the “pulmonary lesions normalized for the number of lung tissue pieces per slide, Mean” value (A. fumigatus; normalized lesions) was 0.6, the “pulmonary lesions normalized for the number of lung tissue pieces per slide, 25th Percentile” value (A. fumigatus; [6]) was 0.13 and 0.1 and the “pulmonary lesions normalized for the number of lung tissue pieces per slide, 75th Percentile” value (A. fumigatus; [6]) was 1.31 and 1.3. For the same compound, the “pulmonary lesions normalized for the number of lung tissue pieces per slide, Maximum” value (A. fumigatus; [6]) was 1.6, the “pulmonary lesions normalized for the number of lung tissue pieces per slide, Median” value (A. fumigatus; [6]) was 0.28 and 0.3 and the “pulmonary lesions normalized for the number of lung tissue pieces per slide, Minimum” value (A. fumigatus; [6]) was 0.13 and 0.1. The “pulmonary lesions in all available histological samples, 25th Percentile” value (A. fumigatus; number of lesions) was 1.0, the “pulmonary lesions in all available histological samples, 75th Percentile” value (A. fumigatus; number of lesions) was 6.8 and the “pulmonary lesions in all available histological samples, Maximum” value (A. fumigatus; number of lesions) was 8.0. For the same compound, the “pulmonary lesions in all available histological samples, Mean” value (A. fumigatus; number of lesions) was 3.3, the “pulmonary lesions in all available histological samples, Median” value (A. fumigatus; number of lesions) was 2.0 and the “pulmonary lesions in all available histological samples, Minimum” value (A. fumigatus; number of lesions) was 1.0.
